Results from ChEMBL document CHEMBL3425465, “Synthesis, antimalarial and antitubercular activities of meridianin derivatives” (Eur J Med Chem, 2015).
Converted amounts (≈) assume the structure as drawn.

What was measured:
Plasmodium falciparum [1] = assay: Antiplasmodial activity against Plasmodium falciparum W2 infected in human RBC assessed as parasite growth inhibition measured as LDH activity after 72 hrs by plate reader analysis; type: functional, organism-based
Plasmodium falciparum [2] = assay: Antiplasmodial activity against Plasmodium falciparum D6 infected in human RBC assessed as parasite growth inhibition measured as LDH activity after 72 hrs by plate reader analysis; type: functional, organism-based
[3] = Retention time of the compound by HPLC analysis; type: physicochemical
[4] = system: Mycobacterium tuberculosis; assay: Antitubercular activity against Mycobacterium tuberculosis H37Rv assessed as […] inhibition after 7 days by broth microdilution assay; type: functional; settings: 168 h
BT-549 = assay: Cytotoxicity against human BT549 cells assessed as cell growth inhibition after 48 hrs by neutral red assay; type: cell-based; settings: BT-549, 48 h
[5] = Selectivity index, ratio of IC50 for pig LLC-PK1 cells to IC50 for Plasmodium falciparum D6
[6] = Selectivity index, ratio of IC50 for African green monkey VERO cells to IC50 for Plasmodium falciparum W2
SK-OV-3 = assay: Cytotoxicity against human SKOV3 cells assessed as cell growth inhibition after 48 hrs by neutral red assay; type: cell-based; settings: SK-OV-3, 48 h
Vero = assay: Cytotoxicity against African green monkey Vero cells assessed as cell growth inhibition after 48 hrs by neutral red assay; type: cell-based; settings: Chlorocebus sabaeus
KB = assay: Cytotoxicity against human KB cells assessed as cell growth inhibition after 48 hrs by neutral red assay; type: cell-based
SK-MEL = assay: Cytotoxicity against human SK-MEL cells assessed as cell growth inhibition after 48 hrs by neutral red assay; type: cell-based
[7] = Selectivity index, ratio of IC50 for pig LLC-PK1 cells to IC50 for Plasmodium falciparum W2
[8] = Selectivity index, ratio of IC50 for African green monkey VERO cells to IC50 for Plasmodium falciparum D6
LLC-PK1 = assay: Cytotoxicity against pig LLC-PK1 cells assessed as cell growth inhibition after 48 hrs by neutral red assay; type: cell-based; settings: Sus scrofa, LLC-PK1, 48 h
[9] = Plasmodium falciparum, W2, 72 h, read-out: IC50
[10] = Plasmodium falciparum, W2, 72 h, read-out: pIC50 (converted)
[11] = Plasmodium falciparum, D6, 72 h, read-out: IC50
[12] = Plasmodium falciparum, D6, 72 h, read-out: pIC50 (converted)

Row | Compound | IC50 (Plasmodium falciparum [1]) | IC50 (Plasmodium falciparum [2]) | Retention_time [3] [min] | MIC90 [4] [µM] | other results
1 | Nc1nccc(-c2cn(S(=O)(=O)c3ccc4c(c3)OCCO4)c3ccccc23)n1 | Not Active | Not Active | 8.02 |  | 
2 | Cc1cc(C)c(S(=O)(=O)n2cc(-c3ccnc(N)n3)c3ccccc32)c(C)c1 | Not Active | Not Active | 8.95 |  | 
3 | CN1CCN(C(=O)n2cc(-c3ccnc(N)n3)c3cc(Br)ccc32)CC1 |  |  |  | 155 (≈ 64.2 µg/mL) | 
4 | Nc1nccc(-c2cn(S(=O)(=O)c3ccc([N+](=O)[O-])cc3)c3ccccc23)n1 |  |  | 7.43 |  | 
5 | Nc1nccc(-c2cn(S(=O)(=O)c3ccc(OC(F)(F)F)cc3)c3ccc(Br)cc23)n1 | Not Active | Not Active | 9.54 | 62.5 (≈ 32.1 µg/mL) | 
6 | Cc1c(C)c(C)c(S(=O)(=O)n2cc(-c3ccnc(N)n3)c3ccccc32)c(C)c1C |  |  | 10 |  | 
7 | Nc1nccc(-c2cn(S(=O)(=O)c3ccc(F)cc3F)c3ccccc23)n1 | Not Active | Not Active | 7.32 |  | 
8 | CC(C)(C)c1ccc(S(=O)(=O)n2cc(-c3ccnc(N)n3)c3ccccc32)cc1 | Not Active | Not Active | 9.09 |  | 
9 | Nc1nccc(-c2cn(S(=O)(=O)c3cccc(C(F)(F)F)c3)c3ccc(Br)cc23)n1 |  |  | 8.61 |  | IC50 (BT-549): > 50 µM; IC50 (Plasmodium falciparum [1]; [9]): 5.34 µM; IC50 (Plasmodium falciparum [1]; [10]): 5.35 µM; Ratio IC50 [5]: >5.4; Ratio IC50 [6]: >9.4; IC50 (SK-OV-3): > 50 µM; IC50 (Vero): > 50 µM; IC50 (KB): > 50 µM; IC50 (SK-MEL): > 50 µM; Ratio IC50 [7]: >9.4; IC50 (Plasmodium falciparum [2]; [11]): 9.3 µM; IC50 (Plasmodium falciparum [2]; [12]): 9.29 µM; Ratio IC50 [8]: >5.4; IC50 (LLC-PK1): > 50 µM
10 | Nc1nccc(-c2cn(C(=O)c3ccccc3)c3ccc(Br)cc23)n1 |  |  |  | 163 (≈ 64 µg/mL) | 
11 | Nc1nccc(-c2cn(S(=O)(=O)c3ccc4c(c3)OCCO4)c3ccc(Br)cc23)n1 | Not Active | Not Active | 8 |  | 
12 | Nc1nccc(-c2c[nH]c3ccc(Br)cc23)n1 [MERIDIANIN C] |  |  |  | 111 (≈ 32.1 µg/mL) | Ratio IC50 [5]: >6; Ratio IC50 [6]: >7.4; Ratio IC50 [7]: >7.4; Ratio IC50 [8]: >6
13 | CO[C@H]1/C=C/O[C@@]2(C)Oc3c(C)c(O)c4c(O)c(c(/C=N/N5CCN(C)CC5)c(O)c4c3C2=O)NC(=O)/C(C)=C\C=C\[C@H](C)[C@H](O)[C@@H](C)[C@@H](O)[C@@H](C)[C@H](OC(C)=O)[C@@H]1C [RIFAMPIN] |  |  |  | 0.07 (≈ 0.0576 µg/mL) | 
14 | Nc1nccc(-c2c[nH]c3ccccc23)n1 |  |  |  | 305 (≈ 64.1 µg/mL) | Ratio IC50 [5]: >11.1; Ratio IC50 [6]: >26.8; Ratio IC50 [7]: >24.1; Ratio IC50 [8]: >12.3
15 | Cc1noc(C)c1Cn1cc(-c2ccnc(N)n2)c2ccccc21 |  |  |  | 201 (≈ 64.1 µg/mL) | 
16 | Cc1cc(C)c(S(=O)(=O)n2cc(-c3ccnc(N)n3)c3cc(Br)ccc32)c(C)c1 |  |  | 10.66 |  | IC50 (BT-549): > 53 µM; IC50 (Plasmodium falciparum [1]; [9]): 8.36 µM; IC50 (Plasmodium falciparum [1]; [10]): 8.36 µM; Ratio IC50 [5]: >6.5; Ratio IC50 [6]: >6.3; IC50 (SK-OV-3): > 53 µM; IC50 (Vero): > 53 µM; IC50 (KB): > 53 µM; IC50 (SK-MEL): > 53 µM; Ratio IC50 [7]: >6.3; IC50 (Plasmodium falciparum [2]; [11]): 8.12 µM; IC50 (Plasmodium falciparum [2]; [12]): 8.13 µM; Ratio IC50 [8]: >6.5; IC50 (LLC-PK1): > 53 µM
17 | COc1ccc(S(=O)(=O)n2cc(-c3ccnc(N)n3)c3ccccc32)cc1OC | Not Active | Not Active | 6.92 |  | 
18 | Nc1nccc(-c2cn(S(=O)(=O)c3ccc(C(F)(F)F)cc3)c3ccc(Br)cc23)n1 |  |  | 9.54 |  | IC50 (BT-549): > 50 µM; IC50 (Plasmodium falciparum [1]; [9]): 9.41 µM; IC50 (Plasmodium falciparum [1]; [10]): 9.42 µM; Ratio IC50 [5]: >5.6; Ratio IC50 [6]: >5.3; IC50 (SK-OV-3): > 50 µM; IC50 (Vero): > 50 µM; IC50 (KB): > 50 µM; IC50 (SK-MEL): > 50 µM; Ratio IC50 [7]: >5.3; IC50 (Plasmodium falciparum [2]; [11]): 8.92 µM; IC50 (Plasmodium falciparum [2]; [12]): 8.91 µM; Ratio IC50 [8]: >5.6; IC50 (LLC-PK1): > 50 µM
19 | Cc1c(C)c(C)c(S(=O)(=O)n2cc(-c3ccnc(N)n3)c3cc(Br)ccc32)c(C)c1C |  |  | 13.88 |  | 

Row | Compound | IC50 (Plasmodium falciparum [1]) | IC50 (Plasmodium falciparum [2]) | Retention_time [3] [min] | MIC90 [4] [µM] | other results
20 | COc1ccc(Br)cc1S(=O)(=O)n1cc(-c2ccnc(N)n2)c2ccccc21 | Not Active | Not Active | 8.38 |  | 
21 | COc1ccc(S(=O)(=O)n2cc(-c3ccnc(N)n3)c3ccccc32)cc1 | Not Active | Not Active | 8.49 |  | 
22 | Nc1nccc(-c2cn(S(=O)(=O)c3ccc(C(F)(F)F)cc3)c3ccccc23)n1 | Not Active | Not Active | 9.15 |  | 
23 | Nc1nccc(-c2cn(S(=O)(=O)c3ccc(Br)cc3)c3ccccc23)n1 | Not Active | Not Active | 8.45 |  | 
24 | Nc1nccc(-c2cn(S(=O)(=O)c3cc(C(F)(F)F)cc(C(F)(F)F)c3)c3ccc(Br)cc23)n1 | Not Active | Not Active | 10.48 |  | 
25 | Nc1nccc(-c2cn(S(=O)(=O)c3ccc(I)cc3)c3ccccc23)n1 | Not Active | Not Active | 8.8 |  | 
26 | Nc1nccc(-c2cn(S(=O)(=O)c3ccc4ccccc4c3)c3ccccc23)n1 | Not Active | Not Active | 8.31 |  | 
27 | O=C1NC(c2c[nH]c3ccc(I)cc23)Nc2ccccc21 (configuration not stated) |  |  |  | 5.2 (≈ 2.02 µg/mL) | 
28 | COc1ccc(S(=O)(=O)n2cc(-c3ccnc(N)n3)c3cc(Br)ccc32)cc1 | Not Active | Not Active | 8.08 |  | 
29 | Nc1nccc(-c2cn(S(=O)(=O)c3ccc(Cl)cc3Cl)c3ccccc23)n1 | Not Active | Not Active | 9.08 |  | 
30 | Cc1noc(C)c1Cn1cc(-c2ccnc(N)n2)c2cc(Br)ccc21 |  |  |  | 80.6 (≈ 32.1 µg/mL) | 
31 | COCCn1cc(-c2ccnc(N)n2)c2cc(Br)ccc21 |  |  |  | 92.2 (≈ 32 µg/mL) | 
32 | Cc1ccsc1C(=O)n1cc(-c2ccnc(N)n2)c2ccccc21 |  |  | 8.48 | 192 (≈ 64.1 µg/mL) | 
33 | Nc1nccc(-c2cn(Cc3ccc(Cl)s3)c3ccc(Br)cc23)n1 |  |  |  | 76.6 (≈ 32.2 µg/mL) | 
34 | Nc1nccc(-c2cn(S(=O)(=O)c3cccc(C(F)(F)F)c3)c3ccccc23)n1 | Not Active | Not Active | 8.34 | 153 (≈ 64.1 µg/mL) | 
35 | Nc1nccc(-c2cn(S(=O)(=O)c3cc(C(F)(F)F)cc(C(F)(F)F)c3)c3ccccc23)n1 | Not Active | Not Active | 7.87 |  | 
36 | COc1cccc2c1C(=O)c1c(O)c3c(c(O)c1C2=O)C[C@@](O)(C(=O)CO)C[C@@H]3O[C@H]1C[C@H](N)[C@H](O)[C@H](C)O1 [DOXORUBICIN] |  |  |  |  | IC50 (BT-549): 1.6 µM; IC50 (Vero): > 9 µM
37 | O=C1NC(c2c[nH]c3ccc(Br)cc23)Nc2ccccc21 (configuration not stated) |  |  |  | 23.4 (≈ 8.01 µg/mL) | 
